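Results reflect a 48-hour exposure of cells in 96-well plates to compound at five concentrations. GI50: concentration for 50% inhibition of growth. TGI denotes the concentration required for complete inhibition of growth.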
Columns and labels:
Assay in all cases: NCI tumour cell line growth inhibition, 48 h
M14 melanoma = system: M14 melanoma
SR leukemia = system: SR leukemia
KM12 colon = system: KM12 colon
SF-268 CNS = system: SF-268 CNS
TK-10 renal = system: TK-10 renal
OVCAR-8 ovarian = system: OVCAR-8 ovarian
MCF7 breast = system: MCF7 breast
SW-620 colon = system: SW-620 colon
IGROV1 ovarian = system: IGROV1 ovarian
UACC-257 melanoma = system: UACC-257 melanoma
A549 NSCLC = system: A549 NSCLC
SF-539 CNS = system: SF-539 CNS
SK-MEL-2 melanoma = system: SK-MEL-2 melanoma
COLO 205 colon = system: COLO 205 colon
HOP-92 NSCLC = system: HOP-92 NSCLC
SK-MEL-5 melanoma = system: SK-MEL-5 melanoma
MOLT-4 leukemia = system: MOLT-4 leukemia
OVCAR-4 ovarian = system: OVCAR-4 ovarian
SN12C renal = system: SN12C renal
OVCAR-3 ovarian = system: OVCAR-3 ovarian
SNB-19 CNS = system: SNB-19 CNS
K-562 leukemia = system: K-562 leukemia
HL-60(TB) leukemia = system: HL-60(TB) leukemia
SK-MEL-28 melanoma = system: SK-MEL-28 melanoma
HOP-62 NSCLC = system: HOP-62 NSCLC
HS 578T breast = system: HS 578T breast
SF-295 CNS = system: SF-295 CNS
HCC-2998 colon = system: HCC-2998 colon
OVCAR-5 ovarian = system: OVCAR-5 ovarian
NCI-H23 lung = system: NCI-H23 lung
UO-31 renal = system: UO-31 renal
SNB-75 CNS = system: SNB-75 CNS
T-47D breast = system: T-47D breast
ACHN renal = system: ACHN renal
RXF 393 renal = system: RXF 393 renal
U251 CNS = system: U251 CNS
HCT-116 colon = system: HCT-116 colon
CAKI-1 renal = system: CAKI-1 renal
DU-145 prostate = system: DU-145 prostate
CCRF-CEM leukemia = system: CCRF-CEM leukemia
UACC-62 melanoma = system: UACC-62 melanoma
LOX IMVI melanoma = system: LOX IMVI melanoma
MDA-MB-435 = system: MDA-MB-435
PC-3 prostate = system: PC-3 prostate
HCT-15 colon = system: HCT-15 colon
NCI-H226 lung = system: NCI-H226 lung
SK-OV-3 ovarian = system: SK-OV-3 ovarian
A498 renal = system: A498 renal
MALME-3M melanoma = system: MALME-3M melanoma
RPMI-8226 leukemia = system: RPMI-8226 leukemia
HT29 colon = system: HT29 colon
NCI-H460 lung = system: NCI-H460 lung
NCI-H522 lung = system: NCI-H522 lung
BT-549 breast = system: BT-549 breast
NCI/ADR-RES ovarian = system: NCI/ADR-RES ovarian
786-0 renal = system: 786-0 renal
MDA-MB-231 breast = system: MDA-MB-231 breast

CCN(Cc1ccc(F)cc1)c1ccc(CO)c(Br)c1
GI50 (M14 melanoma): 16.5 µM
TGI (M14 melanoma): > 55.1 µM
GI50 (SR leukemia): 17 µM
TGI (SR leukemia): 46.4 µM
GI50 (KM12 colon): 23.4 µM
TGI (KM12 colon): 63.1 µM
GI50 (SF-268 CNS): 22.6 µM
TGI (SF-268 CNS): > 56.3 µM
GI50 (TK-10 renal): 0.021 µM
TGI (TK-10 renal): 0.101 µM
GI50 (OVCAR-8 ovarian): 9.64 µM
TGI (OVCAR-8 ovarian): 47.1 µM
GI50 (MCF7 breast): 0.15 µM
TGI (MCF7 breast): 16.1 µM
GI50 (SW-620 colon): 0.475 µM
TGI (SW-620 colon): > 41.2 µM
GI50 (IGROV1 ovarian): 0.0402 µM
TGI (IGROV1 ovarian): 0.202 µM
GI50 (UACC-257 melanoma): 0.0406 µM
TGI (UACC-257 melanoma): 0.185 µM
GI50 (A549 NSCLC): 0.614 µM
TGI (A549 NSCLC): 21.3 µM
GI50 (SF-539 CNS): 15 µM
TGI (SF-539 CNS): 29.4 µM
GI50 (SK-MEL-2 melanoma): 0.96 µM
TGI (SK-MEL-2 melanoma): 12.6 µM
GI50 (COLO 205 colon): 0.966 µM
TGI (COLO 205 colon): 4.98 µM
GI50 (HOP-92 NSCLC): 0.173 µM
TGI (HOP-92 NSCLC): 6.23 µM
GI50 (SK-MEL-5 melanoma): 3.42 µM
TGI (SK-MEL-5 melanoma): 19.6 µM
GI50 (MOLT-4 leukemia): 18.8 µM
TGI (MOLT-4 leukemia): 53.1 µM
GI50 (OVCAR-4 ovarian): 0.152 µM
TGI (OVCAR-4 ovarian): 2.68 µM
GI50 (SN12C renal): 8.71 µM
TGI (SN12C renal): 23.9 µM
GI50 (OVCAR-3 ovarian): 0.238 µM
TGI (OVCAR-3 ovarian): 0.868 µM
GI50 (SNB-19 CNS): 15.7 µM
TGI (SNB-19 CNS): 44.2 µM
GI50 (K-562 leukemia): 0.487 µM
TGI (K-562 leukemia): 18.4 µM
GI50 (HL-60(TB) leukemia): 3.26 µM
TGI (HL-60(TB) leukemia): 26.4 µM
GI50 (SK-MEL-28 melanoma): 15 µM
TGI (SK-MEL-28 melanoma): 50.6 µM
GI50 (HOP-62 NSCLC): 0.646 µM
TGI (HOP-62 NSCLC): 20.2 µM
GI50 (HS 578T breast): 13.5 µM
TGI (HS 578T breast): 46.1 µM
GI50 (SF-295 CNS): 0.148 µM
TGI (SF-295 CNS): 2.3 µM
GI50 (HCC-2998 colon): 5.29 µM
TGI (HCC-2998 colon): 30.8 µM
GI50 (OVCAR-5 ovarian): 0.0525 µM
TGI (OVCAR-5 ovarian): 0.225 µM
GI50 (NCI-H23 lung): 15.6 µM
TGI (NCI-H23 lung): > 56.1 µM
GI50 (UO-31 renal): 2.89 µM
TGI (UO-31 renal): > 40.3 µM
GI50 (SNB-75 CNS): 6.28 µM
TGI (SNB-75 CNS): 39.8 µM
GI50 (T-47D breast): 0.0546 µM
TGI (T-47D breast): 0.296 µM
GI50 (ACHN renal): 10.2 µM
TGI (ACHN renal): 42 µM
GI50 (RXF 393 renal): 1.4 µM
TGI (RXF 393 renal): 16.1 µM
GI50 (U251 CNS): 0.171 µM
TGI (U251 CNS): 13 µM
GI50 (HCT-116 colon): 0.046 µM
TGI (HCT-116 colon): 12.6 µM
GI50 (CAKI-1 renal): 1.02 µM
TGI (CAKI-1 renal): 15.1 µM
GI50 (DU-145 prostate): 16.5 µM
TGI (DU-145 prostate): > 53.1 µM
GI50 (CCRF-CEM leukemia): 14.6 µM
TGI (CCRF-CEM leukemia): 43.9 µM
GI50 (UACC-62 melanoma): 0.0522 µM
TGI (UACC-62 melanoma): 0.342 µM
GI50 (LOX IMVI melanoma): 11.6 µM
TGI (LOX IMVI melanoma): 26.1 µM
GI50 (MDA-MB-435): 19.4 µM
TGI (MDA-MB-435): 49.6 µM
GI50 (PC-3 prostate): 12.8 µM
TGI (PC-3 prostate): 36.2 µM
GI50 (HCT-15 colon): 5.8 µM
TGI (HCT-15 colon): > 52.6 µM
GI50 (NCI-H226 lung): 0.0987 µM
TGI (NCI-H226 lung): 0.231 µM
GI50 (SK-OV-3 ovarian): 5.18 µM
TGI (SK-OV-3 ovarian): 21.9 µM
GI50 (A498 renal): 0.0272 µM
TGI (A498 renal): 0.136 µM
GI50 (MALME-3M melanoma): 16.9 µM
TGI (MALME-3M melanoma): 38 µM
GI50 (RPMI-8226 leukemia): 0.646 µM
TGI (RPMI-8226 leukemia): 22.1 µM
GI50 (HT29 colon): 2.4 µM
TGI (HT29 colon): 19.4 µM
GI50 (NCI-H460 lung): 0.144 µM
TGI (NCI-H460 lung): 12.1 µM
GI50 (NCI-H522 lung): 13.8 µM
TGI (NCI-H522 lung): 30.2 µM
GI50 (BT-549 breast): 12.2 µM
TGI (BT-549 breast): 29 µM
GI50 (NCI/ADR-RES ovarian): 13.4 µM
TGI (NCI/ADR-RES ovarian): 46.8 µM
GI50 (786-0 renal): 5.85 µM
TGI (786-0 renal): 31.1 µM
GI50 (MDA-MB-231 breast): 14.2 µM
TGI (MDA-MB-231 breast): 36.5 µM

— PubChem BioAssay (NCI)
